Legend:
[1] = tested on: CHCl3 arrhythmia; test: inhibition of CHCl3 arrhythmia on mice, i.p.; type: in vivo
Source text: (§1) The antiarrhythmic effectiveness of DHCN and THCN was investigated on mice and rats.

[2] = tested on: mice; test: acute toxicity, LD50 (Litchfield and Wilcoxon) on mice; type: in vivo; settings: i.v., i.p. and oral LD50, mice
Source text: (§2) The toxicity of the compounds according to the present invention can be seen from the LD50 values given in the following Table 8 for intravenous, intraperitoneal and oral administration.

[3] = as above; type: in vivo; settings: mouse, in vivo, mice
Source text: as §2

[4] = tested on: aconitine-induced arrythmias; test: protection against aconitine-induced arrhythmias in urethane-narcotised rats, i.v.; type: in vivo; settings: 2 to 5 mg/kg (THCN)
Source text: as §1

[5] = tested on: stereotypy brought about by apomorphine; test: potentiation of apomorphine stereotypy in mice; type: in vivo; settings: oral, same dosage range (10 to 20 mg/kg)
[6] = tested on: systolic blood pressure of spontaneously hypertonic rats; test: systolic blood pressure of spontaneously hypertonic rats after oral administration; type: in vivo, rat; settings: for systolic blood pressure, subsequent value / systolic blood pressure, Δ / systolic blood pressure, Δ %: 2 h, ajmalicine hydrochloride
Source text: (§3) The blood pressure-lowering action of the compound THCN according to the present invention and of DHCN was investigated on spontaneously hypertonic rats after oral administration and compared with that of ajmalicine. The method thereby used for the measurement of the systolic blood pressure and of the heart rate on rats is described in Arzneimittel-Forschung, 18, 1285-1287/1968. Before commencement of the experiments, the animals were familiarised with the measurement procedure.
(§4) In a first series of experiments, the systolic blood pressure and the heart rate were investigated 2 hours after the oral administration of the test substances in the form of their hydrochlorides. The substances were suspended in 0.2% agar and administered in a volume of 10 ml./kg. It follows therefrom that all three substances lower the blood pressure in a dosage-dependent manner.

[7] = tested on: heart rate of spontaneously hypertonic rats; test: heart rate of spontaneously hypertonic rats after oral administration; type: in vivo, rat; settings: 2 h, ajmalicine hydrochloride
Source text: as §3, §4

[8] = tested on: circulatory disturbances; settings: known therapy of circulatory disturbances; cited from earlier work
[9] = tested on: heart rate of spontaneously hypertonic rats; test: chronological course of heart rate of spontaneously hypertonic rats; type: in vivo, rat; design: unit not given here; settings: 20 mg/kg, 4 h.
[10] = tested on: heart rate of spontaneously hypertonic rats; test: as above; type: in vivo, rat; design: heart rate at time t: unit not given here; settings: 20 mg/kg
Source text: as §3
(§5) In a further series of experiments, the chronological course of the blood pressure lowering was investigated. For this purpose, spontaneously hypertonic rats were treated with 10 mg./kg. DHCN and with 5 or 10 mg./kg. THCN per os and in each case 6 or 12 animals of the treated group were measured at definite times after the treatment.

[11] = tested on: systolic blood pressure of spontaneously hypertonic rats; test: chronological course of blood pressure decrease in spontaneously hypertonic rats; type: in vivo, rat; settings: 20 mg/kg
Source text: as §3, §5

**Q.** With `COC(=O)C1=CO[C@@H](C)[C@H]2CN3CCc4c([nH]c5ccccc45)[C@@H]3C[C@H]12` [ajmalicine, reference compound] as the compound, how does the “antiarrhythmic effectiveness, chloroform arrythmias (in words)” value [1] read?
**A.** Its value is “no antiarrythmic effectiveness”.

**Q.** And the “inhibition in % of CHCl3 arrhythmia” value ([1]; 25 mg/kg)?
**A.** The value was 0%.

**Q.** And the “toxicities compared (in words)” value [2]?
**A.** Its value is “almost the same”.

**Q.** What about the LD50 ([3]; ip) of the same compound?
**A.** The LD50 was 90 mg/kg.

**Q.** And the LD50 ([3]; iv)?
**A.** Its LD50 is 14 mg/kg.

**Q.** What about the LD50 ([3]; po) of the same compound?
**A.** The LD50 was 360 mg/kg.

**Q.** What about the “antiarrhythmic effectiveness, aconitine-induced arrythmias (in words)” value [4] of the same compound?
**A.** The value was “no antiarrythmic effectiveness”.

**Q.** What about the “properties influencing the central nervous system (in words)” value [5] of the same compound?
**A.** Its value is “no properties influencing the central nervous system”.

**Q.** And the “systolic blood pressure, subsequent value” ([6]; 18 mg/kg p.o.)?
**A.** The value was 198 ± 7 mm Hg.

**Q.** What about the “systolic blood pressure, Δ” value ([6]; 18 mg/kg p.o.) of the same compound?
**A.** Its value is -12 ± 2 mm Hg.

**Q.** And the “systolic blood pressure, Δ %” value ([6]; 18 mg/kg p.o.)?
**A.** The value was -5.6 ± 1%.

**Q.** And the “systolic blood pressure, subsequent value” ([6]; 40 mg/kg p.o.)?
**A.** The value was 173 ± 7 mm Hg.

**Q.** What about the “systolic blood pressure, Δ” value ([6]; 40 mg/kg p.o.) of the same compound?
**A.** Its value is -25 ± 6 mm Hg.

**Q.** What about the “systolic blood pressure, Δ %” value ([6]; 40 mg/kg p.o.) of the same compound?
**A.** The value was -12.4 ± 3%.

**Q.** And the “systolic blood pressure, subsequent value” ([6]; 56 mg/kg p.o.)?
**A.** The value was 172 ± 4 mm Hg.

**Q.** And the “systolic blood pressure, Δ” value ([6]; 56 mg/kg p.o.)?
**A.** The value was -37 ± 5 mm Hg.

**Q.** What about the “systolic blood pressure, Δ %” value ([6]; 56 mg/kg p.o.) of the same compound?
**A.** The value was -17.5 ± 2.1%.

**Q.** And the “maximum blood pressure lowering” value ([6]; 56 mg/kg, not exceeded with dosages up to 100 mg/kg)?
**A.** The value was “about 18%”.

**Q.** And the “systolic blood pressure, subsequent value” ([6]; 86 mg/kg p.o.)?
**A.** The value was 165 ± 11 mm Hg.

**Q.** What about the “systolic blood pressure, Δ” value ([6]; 86 mg/kg p.o.) of the same compound?
**A.** Its value is -36 ± 12 mm Hg.

**Q.** And the “systolic blood pressure, Δ %” value ([6]; 86 mg/kg p.o.)?
**A.** Its value is -17.7 ± 6.1%.

**Q.** And the “systolic blood pressure, subsequent value” ([6]; 100 mg/kg p.o.)?
**A.** Its value is 165 ± 5 mm Hg.

**Q.** What about the “systolic blood pressure, Δ” value ([6]; 100 mg/kg p.o.) of the same compound?
**A.** The value was -33 ± 9 mm Hg.

**Q.** And the “systolic blood pressure, Δ %” value ([6]; 100 mg/kg p.o.)?
**A.** Its value is -16.3 ± 4%.

**Q.** And the “heart rate, subsequent value” ([7]; 18 mg/kg p.o.)?
**A.** Its value is 492 ± 27 beats/min.

**Q.** And the “heart rate, Δ” value ([7]; 18 mg/kg p.o.)?
**A.** Its value is 30 ± 15 beats/min.

**Q.** And the “heart rate, Δ %” value ([7]; 18 mg/kg p.o.)?
**A.** Its value is 7.3 ± 4.3%.

**Q.** What about the “heart rate, subsequent value” ([7]; 40 mg/kg p.o.) of the same compound?
**A.** The value was 513 ± 11 beats/min.

**Q.** And the “heart rate, Δ” value ([7]; 40 mg/kg p.o.)?
**A.** The value was 51 ± 19 beats/min.

**Q.** What about the “heart rate, Δ %” value ([7]; 40 mg/kg p.o.) of the same compound?
**A.** Its value is 11.9 ± 4.4%.

**Q.** What about the “heart rate, subsequent value” ([7]; 56 mg/kg p.o.) of the same compound?
**A.** The value was 522 ± 9 beats/min.

**Q.** And the “heart rate, Δ” value ([7]; 56 mg/kg p.o.)?
**A.** Its value is 4 beats/min.

**Q.** What about the “heart rate, Δ %” value ([7]; 56 mg/kg p.o.) of the same compound?
**A.** The value was 0.8 ± 1.6%.

**Q.** And the “heart rate, subsequent value” ([7]; 86 mg/kg p.o.)?
**A.** The value was 511 ± 4 beats/min.

**Q.** And the “heart rate, Δ” value ([7]; 86 mg/kg p.o.)?
**A.** The value was 14 ± 2 beats/min.

**Q.** And the “heart rate, Δ %” value ([7]; 86 mg/kg p.o.)?
**A.** The value was 2.9 ± 2.0%.

**Q.** And the “heart rate, subsequent value” ([7]; 100 mg/kg p.o.)?
**A.** Its value is 515 ± 9 beats/min.

**Q.** What about the “heart rate, Δ” value ([7]; 100 mg/kg p.o.) of the same compound?
**A.** The value was 26 ± 11 beats/min.

**Q.** And the “heart rate, Δ %” value ([7]; 100 mg/kg p.o.)?
**A.** The value was 5.3%.

**Q.** And the “period of activity (in words)” value [8]?
**A.** Its value is “relatively short period of activity”.

**Q.** What about the “heart rate at time t” value [9] of the same compound?
**A.** The value was 499.

**Q.** And the “heart rate at time t” value ([10]; 10 min.)?
**A.** The value was 503.

**Q.** What about the “heart rate at time t” value ([10]; 20 min.) of the same compound?
**A.** The value was 505.

**Q.** What about the “heart rate at time t” value ([10]; 40 min.) of the same compound?
**A.** Its value is 482.

**Q.** What about the “heart rate at time t” value ([10]; 80 min.) of the same compound?
**A.** Its value is 481.

**Q.** And the “heart rate at time t” value ([10]; 2 h.)?
**A.** The value was 472.

**Q.** And the “heart rate at time t” value ([10]; 6 h.)?
**A.** The value was 491.

**Q.** What about the “percentage decrease of blood pressure” value ([11]; 10 min.) of the same compound?
**A.** Its value is 9.5%.

**Q.** And the “percentage decrease of blood pressure” value ([11]; 20 min.)?
**A.** The value was 13.0%.

**Q.** And the “percentage decrease of blood pressure” value ([11]; 40 min.)?
**A.** Its value is 14.2%.

**Q.** And the “percentage decrease of blood pressure” value ([11]; 80 min.)?
**A.** Its value is 9.8%.

**Q.** What about the “percentage decrease of blood pressure” value ([11]; 2 h.) of the same compound?
**A.** Its value is 5.8%.

**Q.** And the “percentage decrease of blood pressure” value ([11]; 4 h.)?
**A.** Its value is -1.2%.

**Q.** And the “percentage decrease of blood pressure” value ([11]; 6 h.)?
**A.** The value was -0.5%.

— patent US4528289A, “Corynantheine derivates, processes for their preparation, and their use” (Dr. Willmar Schwabe GmbH & Co., priority 1982, dated 1985)
